Test results as given in patent publication US20240398806A1, “Compositions For and Methods of Treating and/or Preventing Pain” (Duke University, priority 2021, published 2024).
Read-outs that look alike come from different tables or passages of the source.

Tests used:
[1] = Central blood pressure (systolic ventricular pressure) in anesthetized mice; type: in vivo, C57BL/6J mice; details: 12 mg/kg, i.p.
Description: (§1) SBI-553 treatment was not associated with hypothermia or hypotension. In addition to modulating motivated behavior. […] SBI-553 (at 2-30 mg/kg, i.p.) had no effect on core body temperature (FIG. 6B). […] This was an effect not secondary to hypothermia as body temperature was maintained by thermal support. These findings indicate that a Gq protein-dependent mechanism mediates NTSR1-associated side effects and is not engaged by SBI-553. Consistent with an antagonist like action at NTSR1.

[2] = Pharmacokinetics in monkey (IV and PO); type: in vivo; details: for AUC: monkey; for MRT last: read-out: MRT0-last
NTSR1 [3] = target: T1, NTSR1 (Homo sapiens, UniProt P30989); experiment: [3H]SBI-553 saturation binding to NTSR1-containing HEK293T cell membranes; design: expressed in transfected cells; host or cells: HEK293T cell membranes; details: below 400 nM
T1 sequence (P30989 whole entry): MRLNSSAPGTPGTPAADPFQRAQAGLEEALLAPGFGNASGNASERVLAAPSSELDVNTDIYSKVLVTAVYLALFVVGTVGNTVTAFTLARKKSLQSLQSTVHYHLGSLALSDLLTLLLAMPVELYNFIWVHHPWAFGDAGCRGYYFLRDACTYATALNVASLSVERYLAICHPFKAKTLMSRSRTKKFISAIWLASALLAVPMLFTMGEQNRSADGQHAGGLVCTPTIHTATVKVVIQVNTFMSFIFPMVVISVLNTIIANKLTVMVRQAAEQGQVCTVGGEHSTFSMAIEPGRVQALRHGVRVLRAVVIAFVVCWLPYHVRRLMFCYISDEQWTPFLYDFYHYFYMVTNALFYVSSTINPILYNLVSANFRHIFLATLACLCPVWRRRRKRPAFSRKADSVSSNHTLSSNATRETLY

[4] = Paclitaxel (PTX)-induced mechanical allodynia, von Frey paw withdrawal threshold; details: i.t., 1 mg≈2 nmol as printed
Pharmacokinetics in rat = type: in vivo
lamina IIo neurons = tested on: lamina IIo neurons; design: dose or concentration left out as unconfirmed; details: slices of PTX-treated mice
[5] = Core body temperature measurement; type: in vivo, C57BL/6J mice
Description: Core body temperatures were recorded from age-matched male and female C57BL/6J mice prior to treatment (Time 0) and 30 min, 60 min, 120 min, and 300 min post-treatment using a rectal probe thermometer for mice (Thermalert Model TH-8, Physitemp Instruments, Inc., Clifton, NJ). On three days of the week leading up to the study, animals were handled and temperatures were taken to acclimate the animals to the procedure.
as §1

[6] = Rotarod test of motor function; details: i.t. injection
NTSR2 = target: T2, NTSR2 (Homo sapiens, UniProt O95665); experiment: Cellular assay of β-arrestin-2 translocation in cells expressing NTSR2; type: cell-based
T2 construct: expressed in transfected cells; host or cells: HEK293 cells
T2 sequence (O95665 whole entry, species assumed): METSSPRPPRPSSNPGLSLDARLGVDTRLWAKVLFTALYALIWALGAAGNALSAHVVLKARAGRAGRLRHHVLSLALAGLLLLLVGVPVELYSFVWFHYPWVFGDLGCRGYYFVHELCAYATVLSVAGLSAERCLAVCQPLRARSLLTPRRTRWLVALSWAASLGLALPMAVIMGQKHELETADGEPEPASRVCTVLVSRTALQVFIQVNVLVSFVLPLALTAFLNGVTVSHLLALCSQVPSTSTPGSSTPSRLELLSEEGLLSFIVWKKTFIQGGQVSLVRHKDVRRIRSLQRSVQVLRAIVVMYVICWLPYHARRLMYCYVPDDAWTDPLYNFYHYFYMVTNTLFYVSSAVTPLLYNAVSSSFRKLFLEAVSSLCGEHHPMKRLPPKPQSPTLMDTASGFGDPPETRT
Description: First, using cellular assays, whether IND candidates such as SBI-810 are similar or better than SBI-553 as β-arrestin biased agonist at NTSR1. is assessed. The chemical entities used in this work were synthesized and validated. However, routine validation of the profile of these compounds is performed routinely using both cellular and in vivo assays. For example, HEK293 cells that express either the NTSR1 or NTSR2 are used to assess the functional profile of the various chemical probes. In addition, a series of genetically engineered mouse lines are used to provide an in vivo validation of novel chemical entities for their abilities to module behaviors in these animals.
Fourth, cellular assays are used to establish that IND ready analogs like SBI-810 are still selective for the NTSR1 rather than NTSR2. The specificity of the lead compounds toward NTSR1. NTSR2. and β-arrestin-2 are tested in respective cellular assays. More specifically, cells expressing either NTSR1 or NTSR2 are used to assess the function of various compound. […] This translocation is not observed in cells expressing NTSR2.
Fourth, genetically engineered mice are used to assess the effects and mechanisms of novel ligands. The specificity of the lead compounds toward NTSR1, NTSR2, and β-arrestin-2 dependent signaling is examined. […]

[7] = Pharmacokinetics in mouse; type: in vivo
NTSR1 [8] = target: T1, NTSR1; experiment: [3H]NTS saturation binding to NTSR1-containing HEK293T cell membranes in absence and presence of SBI-553; design: expressed in transfected cells; host or cells: HEK293T cell membranes
Excerpt: FIG. 4A-FIG. 4D show SBI-553 activates NTSR1 to stimulate β-arrestin-associated cellular responses.
(§2) Preliminary studies provided significant data for this example. SBI-553 was derived from a medicinal chemistry campaign to improve the ML314 probe series and was selected for potency, pharmacokinetic profile, and selectivity for NTSR1 over the NTSR2 (Pinkerton A B, et al. (2019) J Med Chem. 62(17):8357-8363, which is incorporated by reference for its teachings of the making of SBI-553). […] Binding specificity to NTSR1 was further confirmed by comparing membranes containing an off-target receptor (i.e., b2-adrenergic receptor) (Slosky L M, et al. (2020) Cell. 181(6):1364-1379e14). […] These findings indicate that SBI-553 is a β-arrestin-biased ligand that stimulates β-arrestin-mediated processes at NTSR1 […] without activating Gq protein signaling (FIG. 5).

[9] = global β-arrestin2 KO mice; cited from earlier work
NTSR1 [10] = target: T1, NTSR1; experiment: Gq protein activation / intracellular Ca++ (FIG. 5A); type: cell-based; design: expressed in transfected cells; host or cells: HEK293T cell membranes; details: unlike NT
Excerpt: as §2

[11] = brain, 30 mg/kg, 30 mpk po (pa [sic]), 1 h, read-out: brain:plasma @ 1 h
[12] = plasma, 30 mg/kg, 5 mpk iv and 30 mpk po

With `COc1ccccc1C1CCN(c2nc(C3(F)CC3)nc3ccc(N(C)CCO)cc23)CC1` [SBI-553] the “Hemodynamic parameters versus vehicle” value [1] was “no differences”, the Co ([2]; Monkey, IV 5 mg/kg) was 4572 ng/mL and the T2/2 ([2]; Monkey, IV 5 mg/kg) was 4.78 h. The CI ([2]; Monkey, PO 20 mg/kg) was 8 mL/min/kg, the Co ([2]; Monkey, PO 20 mg/kg) was 67.6 ng/mL and the Levels in plasma ([2]; following i.v. and p.o. dosing) was “good levels in plasma”. It also gave an AUC ([2]; plasma, iv, 5 mg/kg, Monkey, IV 5 mg/kg, read-out: AUCo-inf) of 4340 ng·h/mL, an AUC ([2]; plasma, iv, 5 mg/kg, Monkey, IV 5 mg/kg, read-out: AUCo-last) of 4280 ng·h/mL and an AUC ([2]; plasma, po, 20 mg/kg, Monkey, PO 20 mg/kg, read-out: AUCo-inf) of 864 ng·h/mL. It also gave an AUC ([2]; plasma, po, 20 mg/kg, Monkey, PO 20 mg/kg, read-out: AUCo-last) of 797 ng·h/mL, a clearance ([2]; plasma, Monkey, IV 5 mg/kg) of 19.2 mL/min/kg and an MRT last ([2]; plasma, Monkey, IV 5 mg/kg) of 2.3 h. It also gave a Vd ([2]; plasma, Monkey, IV 5 mg/kg, read-out: Vdss) of 3.1 L/kg, a half-life ([2]; plasma, Monkey, PO 20 mg/kg) of 8 h and an MRT last ([2]; plasma, Monkey, PO 20 mg/kg) of 11.9 h. The “Specific [3H]SBI-553 binding as share of total binding” value (NTSR1 [3]) was ~50%, the “Duration of reduction of mechanical allodynia” value [4] was > 24 h and the “PTX-induced mechanical allodynia (increased PWT) versus vehicle” value ([4]; four weeks after PTX) was “significant reduction of mechanical allodynia”. It also gave a CIp (Pharmacokinetics in rat; 5 mpk iv (printed tv)) of 81 mL/min/kg, a Vd (Pharmacokinetics in rat; 5 mpk iv (printed tv)) of 7.02 L/kg and a Cmax (Pharmacokinetics in rat; 30 mpk po (pa [sic])) of 3482 ng/mL. The T2/2 (Pharmacokinetics in rat; 30 mpk po (pa [sic])) was 2.23 h, the Kp at 1 h (Pharmacokinetics in rat; [11]) was 0.98 and the bioavailability (Pharmacokinetics in rat; [12]) was 48%. For the same molecule, the AUC (Pharmacokinetics in rat; route not marked) was 2693 ng·h/mL, the “Excitatory synaptic transmission (sEPSCs) in lamina IIo neurons” value (lamina IIo neurons) was “significantly suppressed” and the Core body temperature ([5]; 2-30 mg/kg, i.p.) was “no effect”. For the same molecule, the “Reversal of PD149163-associated decrease in body temperature” value ([5]; pretreatment p.o. 30 min prior to PD149163 (i.p.)) was “dose-dependently reversed”, the “Rotarod testing versus vehicle” value [6] was “no significant difference” and the “Translocation of β-arrestin-2 to intracellular compartments” value (NTSR2) was “not observed”. It also gave a CIp ([7]; 5 mpk iv (printed tv)) of 44.8 mL/min/kg, a Vd ([7]; 5 mpk iv (printed tv)) of 6.16 L/kg and a Cmax ([7]; 30 mpk po (pa [sic])) of 1460 ng/mL. It also gave a T2/2 ([7]; 30 mpk po (pa [sic])) of 5.28 h, a Kp at 1 h [7, 11] of 54 and a bioavailability [7, 12] of 45%. The AUC ([7]; route not marked) was 4824 ng·h/mL, the “Effect on total [3H]NTS binding” value (NTSR1 [8]) was “increased” and the “Increase of NTS affinity for NTSR1 (Kd)” value (NTSR1 [8]; dose-dependent) was “up to 3.9 fold”. The “Increase of number of available [3H]NTS binding sites (Bmax)” value (NTSR1 [8]; dose-dependent) was “up to 3.3 fold”, the “Significant reduction in locomotion” value [9] was “absent” and the “Activation of G protein Gq / intracellular Ca++” value (NTSR1 [10]) was “cannot activate the G protein Gq”.
